ChEMBL document CHEMBL1201862, “PubChem BioAssay data set” (2004)
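Test compounds were applied to cells in 96-well plates for 48 hours at 5 doses. Here, GI50 denotes the concentration required for 50% inhibition of growth.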 The source made the active and inactive calls. No stated cut-off is given here; in the data, active = GI50 up to about 1.1 µM and inactive = higher.

Key:
Experiment in all cases: growth of human tumour cells (NCI), 48 h
NCI-H522 = system: NCI-H522
ACHN = system: ACHN
DU-145 = system: DU-145
CAKI-1 = system: CAKI-1
MCF7 = system: MCF7
HCC 2998 = system: HCC 2998
SF-539 = system: SF-539
NCI-H23 = system: NCI-H23
NCI/ADR-RES = system: NCI/ADR-RES
SK-MEL-5 = system: SK-MEL-5
RPMI-8226 = system: RPMI-8226
IGROV-1 = system: IGROV-1
UACC-257 = system: UACC-257
MDA-MB-435 = system: MDA-MB-435
NCI-H226 = system: NCI-H226
HCT-15 = system: HCT-15
SF-268 = system: SF-268
KM12 = system: KM12
SW-620 = system: SW-620
SF-295 = system: SF-295

Measured: GI50

N/C(S)=N/N=C/c1ccc(N)cn1
inactive: NCI-H522 3.63 µM | ACHN 1.29 µM | DU-145 2.75 µM | CAKI-1 3.78 µM | MCF7 3.01 µM | HCC 2998 3.65 µM | NCI-H23 2.13 µM | NCI/ADR-RES 3.08 µM | SK-MEL-5 2.25 µM | RPMI-8226 3.52 µM | IGROV-1 > 10 µM | UACC-257 > 10 µM | MDA-MB-435 5.9 µM | NCI-H226 4.24 µM | SF-268 4.29 µM | KM12 6.22 µM | SW-620 > 10 µM | SF-295 3.52 µM
5.87 µM: HCT-15
active: SF-539 0.404 µM

COc1cc(/C=C2\N=C(c3ccccc3)N(c3nc4ccccc4s3)C2=O)cc(OC)c1OC
30.3 µM: HCT-15
active: RPMI-8226 0.352 µM
inactive: NCI-H522 13.4 µM | ACHN 20.6 µM | DU-145 34.1 µM | CAKI-1 70.6 µM | MCF7 31.3 µM | HCC 2998 27.4 µM | SF-539 32.3 µM | NCI-H23 31.1 µM | NCI/ADR-RES 20.4 µM | SK-MEL-5 49.9 µM | IGROV-1 28.6 µM | UACC-257 > 100 µM | MDA-MB-435 15.6 µM | NCI-H226 > 100 µM | SF-268 26.5 µM | KM12 31.3 µM | SW-620 31.3 µM | SF-295 39.5 µM

CO[C@@]12C[C@@H](C)[C@]34O[C@H]3C[C@]3(C)O[C@]43CC1=C(C)C(=O)O2
inactive: NCI-H522 > 100 µM | ACHN > 100 µM | DU-145 > 100 µM | CAKI-1 > 100 µM | MCF7 > 100 µM | HCC 2998 > 100 µM | SF-539 > 100 µM | NCI-H23 > 100 µM | NCI/ADR-RES > 100 µM | SK-MEL-5 > 100 µM | RPMI-8226 > 100 µM | IGROV-1 38.8 µM | UACC-257 > 100 µM | MDA-MB-435 > 100 µM | NCI-H226 > 100 µM | SF-268 > 100 µM | KM12 > 100 µM | SW-620 > 100 µM | SF-295 > 100 µM
> 100 µM: HCT-15

C[C@H]1CC[C@H](NC(=O)N(CCCl)N=O)CC1
inactive: NCI-H522 40 µM | ACHN 49.4 µM | DU-145 82.4 µM | CAKI-1 27.2 µM | MCF7 50.4 µM | HCC 2998 44 µM | SF-539 27.1 µM | NCI-H23 54.5 µM | NCI/ADR-RES 47.1 µM | SK-MEL-5 40.4 µM | RPMI-8226 31.6 µM | IGROV-1 38.8 µM | UACC-257 46.3 µM | MDA-MB-435 28.1 µM | NCI-H226 59 µM | SF-268 22.1 µM | KM12 59.3 µM | SW-620 31.3 µM | SF-295 13.4 µM
40.6 µM: HCT-15

O=C(O)c1c2c(cc3c1CC1(Cc4ccccc4C1=O)C3)CCC2 (stereo not given)
inactive: NCI-H522 22.1 µM | ACHN 57 µM | DU-145 64 µM | CAKI-1 41.5 µM | MCF7 26.2 µM | HCC 2998 3.33 µM | SF-539 29.7 µM | NCI-H23 44 µM | NCI/ADR-RES 28.7 µM | SK-MEL-5 19.6 µM | RPMI-8226 18.4 µM | IGROV-1 > 61.5 µM | UACC-257 50 µM | MDA-MB-435 3.69 µM | NCI-H226 24.3 µM | SF-268 59.4 µM | KM12 14.4 µM | SW-620 30.1 µM | SF-295 38.6 µM
14.8 µM: HCT-15

O=C(O)c1ccc(Nc2cnc3cc(C(F)(F)F)ccc3n2)cc1
inactive: NCI-H522 25.8 µM | ACHN 34.1 µM | DU-145 58.5 µM | CAKI-1 > 100 µM | MCF7 38 µM | HCC 2998 30.2 µM | SF-539 78 µM | NCI-H23 46.5 µM | NCI/ADR-RES 40.9 µM | SK-MEL-5 40.8 µM | RPMI-8226 35.2 µM | IGROV-1 25.3 µM | UACC-257 43.7 µM | MDA-MB-435 43.5 µM | NCI-H226 71.3 µM | SF-268 > 100 µM | KM12 37.1 µM | SW-620 69.8 µM | SF-295 89.3 µM
25.6 µM: HCT-15

N#CC1=C(N2CCOCC2)CCC1
inactive: NCI-H522 > 100 µM | ACHN > 100 µM | DU-145 > 100 µM | CAKI-1 > 100 µM | MCF7 > 100 µM | HCC 2998 > 100 µM | SF-539 > 100 µM | NCI-H23 > 100 µM | NCI/ADR-RES > 100 µM | SK-MEL-5 > 100 µM | RPMI-8226 > 100 µM | IGROV-1 > 100 µM | UACC-257 > 100 µM | MDA-MB-435 > 100 µM | NCI-H226 > 100 µM | SF-268 > 100 µM | KM12 > 100 µM | SW-620 > 100 µM | SF-295 > 100 µM
> 100 µM: HCT-15

CN(C)c1ccc(/C=C(\NC(=O)c2ccccc2)C(=O)NC(CC(=O)O)C(=O)O)cc1 (stereo not given)
> 100 µM: HCT-15
inactive: NCI-H522 17.7 µM | ACHN > 100 µM | DU-145 > 100 µM | CAKI-1 > 100 µM | MCF7 > 100 µM | HCC 2998 > 100 µM | SF-539 > 100 µM | NCI-H23 > 100 µM | NCI/ADR-RES 43.7 µM | SK-MEL-5 94.6 µM | RPMI-8226 > 100 µM | IGROV-1 > 100 µM | UACC-257 > 100 µM | MDA-MB-435 > 100 µM | NCI-H226 > 100 µM | SF-268 61.4 µM | KM12 39.4 µM | SW-620 > 100 µM | SF-295 > 100 µM

COC12OC3CC4(C)C(=CC3OC(OC(C)C1O)C2O)CCC1C4CCC2(C)C(c3ccc(=O)oc3)CCC12O (stereo not given)
0.00216 µM: HCT-15
active: NCI-H522 < 0.001 µM | ACHN 0.00181 µM | DU-145 0.00129 µM | CAKI-1 0.00147 µM | MCF7 0.00178 µM | HCC 2998 0.00338 µM | SF-539 0.00126 µM | NCI-H23 0.00125 µM | NCI/ADR-RES 0.00151 µM | SK-MEL-5 < 0.001 µM | RPMI-8226 0.00177 µM | IGROV-1 0.00171 µM | UACC-257 0.00283 µM | MDA-MB-435 0.00216 µM | NCI-H226 0.00246 µM | SF-268 0.00105 µM | KM12 0.00247 µM | SW-620 0.00178 µM | SF-295 0.00176 µM

O=C(/C=C/c1ccco1)c1cccc(C(=O)/C=C/c2ccco2)n1
4.92 µM: HCT-15
active: MCF7 0.662 µM
inactive: NCI-H522 3.9 µM | ACHN 21.9 µM | DU-145 24.9 µM | CAKI-1 25 µM | HCC 2998 > 75.9 µM | SF-539 5.01 µM | NCI-H23 11.7 µM | NCI/ADR-RES 24.2 µM | SK-MEL-5 48.6 µM | RPMI-8226 1.87 µM | IGROV-1 6.82 µM | UACC-257 60.7 µM | MDA-MB-435 48.5 µM | NCI-H226 > 100 µM | SF-268 5.24 µM | KM12 3.98 µM | SW-620 3.2 µM | SF-295 40.1 µM

Cc1c(NC(=O)CSC(=S)N2CCN(Cc3ccccc3)CC2)c(=O)n(-c2ccccc2)n1C
> 100 µM: HCT-15
inactive: NCI-H522 > 100 µM | ACHN > 100 µM | DU-145 > 100 µM | CAKI-1 > 100 µM | MCF7 > 100 µM | HCC 2998 28.4 µM | SF-539 > 100 µM | NCI-H23 > 100 µM | NCI/ADR-RES > 100 µM | SK-MEL-5 > 100 µM | RPMI-8226 > 100 µM | IGROV-1 > 100 µM | UACC-257 > 100 µM | MDA-MB-435 > 100 µM | NCI-H226 > 100 µM | SF-268 > 100 µM | KM12 > 100 µM | SW-620 > 100 µM | SF-295 > 100 µM

CC(=O)n1nc(-c2[nH]c(C)c(-c3nn(C(C)=O)c(=S)o3)c2C)oc1=S
inactive: NCI-H522 > 85.7 µM | ACHN > 100 µM | DU-145 > 100 µM | CAKI-1 > 100 µM | MCF7 > 100 µM | HCC 2998 > 100 µM | SF-539 81.7 µM | NCI-H23 > 100 µM | NCI/ADR-RES > 100 µM | SK-MEL-5 > 100 µM | RPMI-8226 > 56.6 µM | IGROV-1 > 100 µM | UACC-257 > 100 µM | MDA-MB-435 > 100 µM | NCI-H226 > 54 µM | SF-268 > 100 µM | KM12 > 100 µM | SW-620 > 100 µM | SF-295 > 100 µM
> 100 µM: HCT-15

O=[N+]([O-])C(=C(Cl)Cl)C(Cl)=C(Cl)Cl
active: NCI-H522 < 0.01 µM | ACHN 0.635 µM | CAKI-1 0.15 µM | MCF7 0.114 µM | NCI-H23 0.265 µM | SK-MEL-5 0.52 µM | RPMI-8226 < 0.0176 µM | IGROV-1 0.422 µM | UACC-257 0.166 µM | MDA-MB-435 0.314 µM | NCI-H226 0.834 µM | SF-268 0.701 µM | SW-620 0.0169 µM
inactive: DU-145 8.85 µM | HCC 2998 1.3 µM | SF-539 1.45 µM | NCI/ADR-RES 1.36 µM | KM12 1.85 µM | SF-295 3.06 µM
0.156 µM: HCT-15

COc1cccc(-c2cc(O)c3cc(N4CCOCC4)ccc3n2)c1
0.0383 µM: HCT-15
active: NCI-H522 0.0158 µM | ACHN 0.0524 µM | DU-145 0.038 µM | CAKI-1 0.0426 µM | MCF7 0.0484 µM | HCC 2998 0.0656 µM | SF-539 0.0217 µM | NCI-H23 0.0289 µM | NCI/ADR-RES 0.0845 µM | SK-MEL-5 0.0231 µM | RPMI-8226 0.361 µM | IGROV-1 0.0575 µM | UACC-257 0.0559 µM | MDA-MB-435 0.00834 µM | NCI-H226 0.0383 µM | SF-268 0.0552 µM | KM12 0.0424 µM | SW-620 0.0324 µM | SF-295 0.041 µM
